From DBAASP come the findings set out here.

One may read the MIC as the least concentration at which growth counts as inhibited.

Values after ≈ are worked out from the molar mass of the structure shown.

Common to all, as to assay: ≥ marks a high value that may be exact or a test limit, other limits are often not marked, values filed in µg/mL are converted to µM
In test [1] the test system is Bacillus subtilis 168.
The test system of test [2] is Escherichia coli K-12.
The test system of test [3] is Pseudomonas aeruginosa PAO1.
Test [4] deals with Staphylococcus aureus USA 300.
The subject of test [5] is Escherichia coli ATCC 25922.
In test [6] the test system is Escherichia coli UB1005.
The subject of test [7] is Salmonella enterica subsp. enterica serovar Typhimurium C77-31.
In test [8] the test system is Staphylococcus aureus ATCC 25923.
The test system of test [9] is Staphylococcus aureus ATCC 29213.
The test system of test [10] is Staphylococcus epidermidis ATCC 12228.
Test [11] concerns Enterococcus faecalis ATCC 29212.
The test system of test [12] is Salmonella enterica serovar Typhimurium.

For the molecule `CC(C)C[C@H](NC(=O)[C@H](CC(C)C)NC(=O)[C@H](CCCCN)NC(=O)[C@@H]1CCCN1C(=O)[C@H](CC(C)C)NC(=O)[C@H](CC(C)C)NC(=O)[C@H](CCCCN)NC(=O)[C@H](CC(C)C)NC(=O)[C@H](CC(C)C)NC(=O)[C@H](CO)NC(=O)CNC(=O)[C@H](Cc1ccccc1)NC(=O)[C@@H](N)Cc1ccccc1)C(N)=O` [FFGSLLKLLPKLL], the MIC in [1] was determined as 3.12 µM (≈ 4.64 µg/mL); in test [2] it was 12.5 µM (≈ 18.6 µg/mL); in test [3], 70.7 µM (≈ 105 µg/mL); in test [4] it was 1.1 µM (≈ 1.64 µg/mL).

With `CC[C@H](C)[C@H](NC(=O)[C@H](CCCCN)NC(=O)[C@H](CCCCN)NC(=O)[C@H](CC(C)C)NC(=O)[C@@H](NC(=O)[C@H](CCCCN)NC(=O)CNC(=O)[C@@H](NC(=O)[C@H](CCCCN)NC(=O)[C@H](CCCCN)NC(=O)[C@H](CC(C)C)NC(=O)[C@H](CCCN=C(N)N)NC(=O)[C@H](CCCCN)NC(=O)[C@H](CCCN=C(N)N)NC(=O)[C@@H](NC(=O)[C@H](CCCCN)NC(=O)[C@H](CCCCN)NC(=O)[C@H](CCCN=C(N)N)NC(=O)[C@H](CC(C)C)NC(=O)[C@H](CCCN=C(N)N)NC(=O)[C@H](CCCN=C(N)N)NC(=O)[C@H](Cc1ccccc1)NC(=O)[C@H](CCCN=C(N)N)NC(=O)CN)[C@@H](C)O)[C@@H](C)CC)C(C)C)C(N)=O` [GRFRRLRKKTRKRLKKIGKVLKKI], the MIC in test [5] was 32 µM (≈ 96.2 µg/mL); in test [6], 16 µM (≈ 48.1 µg/mL); in test [7], at least 128 µM; in [8], 64 µM (≈ 192 µg/mL); in test [9], 32 µM (≈ 96.2 µg/mL); in [10] it was 32 µM (≈ 96.2 µg/mL).

With `CC[C@H](C)[C@H](NC(=O)[C@H](CCCCN)NC(=O)[C@H](CCCCN)NC(=O)[C@H](CC(C)C)NC(=O)[C@H](CCCN=C(N)N)NC(=O)[C@H](CC(=O)O)NC(=O)[C@H](CCCN=C(N)N)NC(=O)[C@@H](NC(=O)[C@H](CCCCN)NC(=O)[C@H](CC(=O)O)NC(=O)[C@H](CCCN=C(N)N)NC(=O)[C@H](CC(C)C)NC(=O)[C@H](CCCN=C(N)N)NC(=O)[C@H](CCCN=C(N)N)NC(=O)[C@H](Cc1ccccc1)NC(=O)[C@@H](N)CCCN=C(N)N)[C@@H](C)O)C(N)=O` [RFRRLRDKTRDRLKKI], the MIC in test [11] is above 128 µM; in test [5], above 128 µM; in test [6], at least 128 µM; in test [7], at least 128 µM; in test [9], above 128 µM; in test [10], above 128 µM.

On to `CC(C)C[C@H](NC(=O)[C@H](CCCN=C(N)N)NC(=O)[C@H](CCCCN)NC(=O)[C@H](Cc1c[nH]c2ccccc12)NC(=O)[C@@H](NC(=O)[C@H](CCCCN)NC(=O)[C@H](CCCCN)NC(=O)[C@H](Cc1c[nH]c2ccccc12)NC(=O)[C@H](CC(C)C)NC(=O)[C@H](CCCN=C(N)N)NC(=O)[C@@H](N)CCCN=C(N)N)[C@@H](C)O)C(=O)N[C@@H](Cc1c[nH]c2ccccc12)C(N)=O` [RRLWKKTWKRLW], for which the MIC came to 4 µM (≈ 7.02 µg/mL) in test [5]; 4 µM (≈ 7.02 µg/mL) in test [6]; 8 µM (≈ 14 µg/mL) in [7]; 16 µM (≈ 28.1 µg/mL) in test [8]; 8 µM (≈ 14 µg/mL) in test [9]; 8 µM (≈ 14 µg/mL) in [10].

With `CC[C@H](C)[C@H](NC(=O)[C@H](CCCN=C(N)N)NC(=O)[C@H](Cc1c[nH]c2ccccc12)NC(=O)[C@H](CS)NC(=O)[C@@H](N)C(C)C)C(=O)N[C@@H](CCCN=C(N)N)C(=O)N[C@H](C(=O)N[C@@H](C)C(=O)N[C@H](C(=O)N[C@H](C(=O)N[C@@H](CCCN=C(N)N)C(=O)N[C@@H](C)C(=O)O)[C@@H](C)CC)C(C)C)C(C)C` [VCWRIRVAVIRA], the MIC in [5] was 44.4 µM (≈ 64 µg/mL); in test [3], 44.4 µM (≈ 64 µg/mL); in test [12], at least 44.4 µM; in test [8], 22.2 µM (≈ 32 µg/mL).
